Like-named read-outs stand apart in the source and are kept apart here. Where a SMILES comes first, the peptide text is derived from it.
Legend:
[1] = Estimation of the interaction between oleic acid and the test substance; type: physicochemical
Description: Several solubilizing compounds were tested in aqueous medium for their potential to solubilize a reference fatty acid, namely oleic acid.
(§1) In the following tests oleic acid was mixed with the test substances in H2O, Subsequently, log P and pH were measured and the solubility of the test substance in H2O was estimated together with an estimation of the interaction between oleic acid and the test substance according to the scheme shown below.
(§2) The solutions were rested for 1 h and pH was measured. In case of incomplete dissolution and a pH below 7 a 1M NaOH solution was added dropwise until turbidity resolved. Then the mixtures were stirred or shaken. In order to assess the stability of the obtained micro or nanoemulsion, the solution were heated for 1 hour to 60° C. and cooled to room temperature. An other part of the clear solution was stored over night at 4° C. and then rewarmed to room temperature. Thereafter solutions were analysed for solid formation, residual oil, viscosity, turbidity, and DLS measurements were performed.
Estimation of the Interaction Between Oleic Acid and the Test Substance: • X=Interaction between oleic acid and the test substance • (X)=Interaction between oleic acid and test substance.

[2] = log P of the test substance
Description: as §1

[3] = Dynamic laser light scattering (DLS) of oleic acid micro-/nanoemulsions; type: physicochemical; settings: for Mean Size by Intensity: DLS, emulsion with oleic acid; for Part: percentage of the peak in the sample
Description: as §2
For DLS measurements a Zetasizer Nano S from Malvern (USA) was used. All measurements were repeated three times undiluted, or 1:10 and 1:100 diluted by water. For the measurements the viscosity of water and the refractory index of water were used.
Peak Maximum by Intensity: Size is directly determined from the measurement without a weighting of volume or particle number.
Peaks are presented corresponding to their percentage in the sample.
Ratio of peak maxima: Percentual distribution of particle sizes.

[4] = pH of aqueous solution of solubilizing compound mixed with oleic acid; type: physicochemical; settings: solubilizing compound in water with 0.833 mol equivalents of oleic acid
Description: as §1
The solutions were rested for 1 h and pH was measured. In case of incomplete dissolution and a pH below 7 a 1M NaOH solution was added dropwise until turbidity resolved. Then the mixtures were stirred or shaken.

[5] = Estimation of solubility of the test substance in H2O; type: physicochemical
Description: as §1, §2
Estimation of Solubility: • X=Compound is completely dissolved • (X)=Compound is partially dissolved • ((X))=Compound is not dissolved (visual appearance) but there is a change in pH. Therefore it is assumed that at least a small part is dissolved. • −=insoluble

[6] = cited from earlier work
[7] = biological target: fatty acids bound to albumin (Homo sapiens, UniProt P02768); assay: Liberation of 3H-labeled oleic acid bound to albumin, extraction with n-hexane; settings: identical procedure
Excerpt: The capacity of arginine to liberate fatty acids bound to albumin was investigated by ^3H-labeled oleic acid.

[8] = Influence of the pH on the solubility of oleic acid in aqueous medium; type: physicochemical
Description: At the beginning the influence of the pH on the solubility of oleic acid in aqueous medium was tested. These tests were conducted in order to exclude the possibility that the observed solubility of oleic acid was due to pH changes and not primarily because of the interaction of functional groups.

[9] = n-octanol and water; cited from earlier work
[10] = cited from earlier work; remark: listed apart in the source
[11] = water (H2O), test substance mixed with oleic acid

Sequence of fatty acids bound to albumin (P02768 25-609): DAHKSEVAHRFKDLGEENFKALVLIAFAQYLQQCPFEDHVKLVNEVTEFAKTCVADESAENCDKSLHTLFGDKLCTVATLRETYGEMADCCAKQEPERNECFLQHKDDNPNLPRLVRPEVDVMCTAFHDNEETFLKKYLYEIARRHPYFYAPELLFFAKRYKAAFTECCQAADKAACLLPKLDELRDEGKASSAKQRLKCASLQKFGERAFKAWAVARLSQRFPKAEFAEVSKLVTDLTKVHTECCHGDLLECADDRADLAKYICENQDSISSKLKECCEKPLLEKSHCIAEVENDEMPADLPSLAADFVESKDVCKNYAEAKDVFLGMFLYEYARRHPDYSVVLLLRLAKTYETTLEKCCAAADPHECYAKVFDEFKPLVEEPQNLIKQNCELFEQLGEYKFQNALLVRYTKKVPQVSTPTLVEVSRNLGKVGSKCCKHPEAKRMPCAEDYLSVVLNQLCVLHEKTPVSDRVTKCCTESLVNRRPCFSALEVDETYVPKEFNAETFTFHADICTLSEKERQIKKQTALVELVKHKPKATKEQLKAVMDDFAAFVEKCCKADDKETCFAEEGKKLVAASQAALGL

C[C@H](NC(=O)[C@H](Cc1ccccc1)NC(=O)[C@@H](N)CCCNC(=N)N)C(=O)O [Arg-Phe-Ala acetate] (H-Arg-Phe-Ala-OH; N-terminus and C-terminus assumed)
logP: -3.6

CN/C(=N\[N+](=O)[O-])NCc1cnc(Cl)s1 [Clothianidine, (E)-1-(2-chlor-1,3-thiazol-5-ylmethyl)-3-methyl-2-nitroguanidine]
Interaction with Oleic Acid [1]: X, E
logP [2]: -2.03
Mean Size by Intensity [3]: 153 nm
Part [3]: 53.9%
pH [4]: 9.81
Dissolved (H2O) [5]: (X)

CO/C=C(/C(=O)OC)c1ccccc1Oc1cc(Oc2ccccc2C#N)ncn1 [azoxystrobin]
mg soluble in water [6]: 6.7 mg/L

NCCCC[C@H](N)C(=O)O [L-Lysine]
Interaction with Oleic Acid [1]: X, E
reduction of residual fatty acids as compared to arginine [7]: significantly less
logP [2, 11]: -3.42
Mean Size by Intensity [3]: 133 nm
Part [3]: 95.6%
pH [4]: 9.56

NCCCC[C@H](N)C(=O)N[C@@H](CCCN=C(N)N)C(=O)O [Lys-Arq acetate] (H-Lys-Arg-OH)
logP: -5.06

CCCCCCCC/C=C\CCCCCCCC(=O)O [oleic acid, cis-9-octadecenoic acid]
solubility of oleic acid in aqueous medium ([8]; pH 14): formation of a solid precipitate
solubility of oleic acid in aqueous medium ([8]; pH range of 9-12 at room temperature): no interaction
solubility of oleic acid in aqueous medium ([8]; starting at pH 13): begins to dissolve

Cc1ccccc1NC(=N)NC(=N)N [1-(o-Tolyl)biguanide]
Interaction with Oleic Acid [1]: X, E
logP [2, 11]: 1.41
Mean Size by Intensity [3]: 850 nm
Part [3]: 95.5%
pH [4]: 11.53
Dissolved (H2O) [5]: (X)

N=C(N)NCCC[C@H](NC(=O)[C@@H](N)Cc1c[nH]cn1)C(=O)O [His-Arg] (H-His-Arg-OH; N-terminus and C-terminus assumed)
logP: -5.74

sudan red
mg soluble in water [6]: unsoluble

Cl.N[C@@H](Cc1c[nH]cn1)C(=O)O.O [Histidine hydrochloride monohydrate]
Interaction with Oleic Acid [1]: X, E
reduction of residual fatty acids as compared to arginine [7]: significantly less
Mean Size by Intensity [3]: 647 nm
Part [3]: 81.9%
pH [4]: 9.30
logP (physchem): -4.37

CCCCCCCC(=O)O [octanoic acid]
log KOW [9]: 3.05

N=C(N)NCCCC(N)C(=O)O [L-Arginine, 2-amino-5-guanidinopentanoic acid]
pKa ([10]; amino group): 8.99
pKa ([10]; carboxyl group): 1.82
logP (physchem): -3.52

NC(=O)CC[C@H](N)C(=O)O [L-Glutamin, reference compound]
Interaction with Oleic Acid [1]: ((X))
reduction of residual fatty acids as compared to arginine [7]: significantly less
pH [4]: 8.37
logP (physchem): -2.05
Dissolved (H2O) [5]: (X)

C[C@@H](O)[C@H](N)C(=O)N[C@@H](CCCCN)C(=O)N1CCC[C@H]1C(=O)N[C@@H](CCCNC(=N)N)C(=O)O [Thr-Lys-Pro-Arq (Tuftsin)] (H-TKPR-OH; N-terminus and C-terminus assumed)
logP: -3.98

NC(=O)C[C@H](N)C(=O)O [asparagine, reference compound]
reduction of residual fatty acids as compared to arginine [7]: significantly less

NCC(=O)N[C@@H](Cc1c[nH]cn1)C(=O)O [Gly-His] (H-Gly-His-OH; N-terminus and C-terminus assumed)
logP: -2.42

C1=Cc2nc1c(-c1ccccc1)c1nc(c(-c3ccccc3)c3ccc([nH]3)c(-c3ccccc3)c3ccc([nH]3)c2-c2ccccc2)C=C1 [tetraphenylporphyrin]
mg soluble in water [6]: 2 mg/L

N=C(N)NCCC[C@H](NC(=O)CN)C(=O)O [Gly-Arg] (H-Gly-Arg-OH; N-terminus and C-terminus assumed)
logP: -5.06

[Co+2].c1ccc2c(c1)-c1nc-2nc2[n-]c(nc3nc(nc4[n-]c(n1)c1ccccc41)-c1ccccc1-3)c1ccccc21 [co-phthalocyanine]
mg soluble in water [6]: unsoluble
